Values joined by “and” are separate entries in the source; they are usually repeats but may differ in a detail not shown here. Equal entries are not always repeated. Inconclusive results and toxic doses are left out. The calls were made as follows: active = survival T/C of 150% or more; inactive = T/C below 125% in these data.
System: P388 leukemia ip, CD2F1 mice, survival T/C
Experiment: NCI In Vivo Anticancer Drug Screen. Data for tumor model P388 Leukemia (intraperitoneal) in CD2F1 (CDF1) mice
Settings: endpoint: median survival time, higher = longer survival
Procedure, shortened: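 Mice carrying the transplanted tumor received test compound or vehicle. Survival was recorded in each group, and the value is the treated-group measurement divided by that of the vehicle-treated control group.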

Measured: T/C

COc1cccc2c1C(=O)c1c(O)c3c(c(O)c1C2=O)C[C@@](O)(C(C)=O)C[C@@H]3OC1CC(N)C(O)C(C)O1 (some centres not stated)
active: dose: 1.8 mg/kg/injection, schedule: Q01DX001 (ip), vehicle: water 162 % of control | dose: 1.8 mg/kg/injection, schedule: Q01DX009 (ip), vehicle: saline 163 % of control | dose: 1.8 mg/kg/injection, schedule: Q04DX003 (ip), vehicle: saline 154 % of control | dose: 1.8 mg/kg/injection, schedule: Q04DX003 (ip), vehicle: water 160 % of control | dose: 2.0 mg/kg/injection, schedule: Q01DX005 (ip), vehicle: water 153 % of control | dose: 2.0 mg/kg/injection, schedule: Q03HX024 (ip), vehicle: saline 156 % of control | dose: 2.4 mg/kg/injection, schedule: Q01DX001 (ip), vehicle: water 163 % of control | dose: 2.5 mg/kg/injection, schedule: Q03HX008 (ip), vehicle: saline 170 % of control | dose: 3.0 mg/kg/injection, schedule: Q01DX001 (ip), vehicle: saline 150 % of control and 153 % of control | dose: 3.2 mg/kg/injection, schedule: Q01DX001 (ip), vehicle: water 171 % of control | dose: 4.0 mg/kg/injection, schedule: Q01DX001 (ip), vehicle: saline 160 % of control | dose: 4.0 mg/kg/injection, schedule: Q01DX005 (ip), vehicle: water 164 % of control | dose: 4.2 mg/kg/injection, schedule: Q01DX001 (ip), vehicle: water 174 % of control | dose: 4.5 mg/kg/injection, schedule: Q01DX001 (ip), vehicle: saline 166 % of control | dose: 4.5 mg/kg/injection, schedule: Q04DX003 (ip), vehicle: saline 159 % of control | dose: 5.0 mg/kg/injection, schedule: Q01DX001 (ip), vehicle: saline 159 % of control and 174 % of control | dose: 8.0 mg/kg/injection, schedule: Q04DX003 (iv), vehicle: saline 150 % of control | dose: 12.0 mg/kg/injection, schedule: Q04DX003 (ip), vehicle: saline 150 % of control | dose: 7.5 micrograms/kg/injection, schedule: Q03HX024 (ip), vehicle: saline 155 % of control | dose: 16.3 micrograms/kg/injection, schedule: Q03HX024 (ip), vehicle: saline 165 % of control
inactive: dose: 2.0 mg/kg/injection, schedule: Q01DX001 (ip), vehicle: saline 114 % of control | dose: 2.0 mg/kg/injection, schedule: Q01DX005 (oral), vehicle: water 114 % of control | dose: 2.0 mg/kg/injection, schedule: Q04DX003 (iv), vehicle: saline 102 % of control | dose: 3.0 mg/kg/injection, schedule: Q01DX009 (ip), vehicle: saline 104 % of control | dose: 4.0 mg/kg/injection, schedule: Q01DX004 (ip), vehicle: saline 99 % of control | dose: 4.0 mg/kg/injection, schedule: Q01DX005 (oral), vehicle: water 104 % of control | dose: 4.0 mg/kg/injection, schedule: Q04DX003 (iv), vehicle: saline 104 % of control and 113 % of control and 121 % of control | dose: 5.0 mg/kg/injection, schedule: Q01DX009 (ip), vehicle: water 100 % of control | dose: 5.0 mg/kg/injection, schedule: Q04DX003 (ip), vehicle: saline 118 % of control | dose: 5.0 mg/kg/injection, schedule: Q04DX003 (ip), vehicle: water 118 % of control | dose: 5.6 mg/kg/injection, schedule: Q01DX001 (ip), vehicle: water 106 % of control | dose: 6.0 mg/kg/injection, schedule: Q04DX003 (ip), vehicle: saline 122 % of control | dose: 7.5 mg/kg/injection, schedule: Q01DX001 (ip), vehicle: water 116 % of control | dose: 8.0 mg/kg/injection, schedule: Q01DX001 (ip), vehicle: saline 124 % of control | dose: 8.0 mg/kg/injection, schedule: Q01DX005 (oral), vehicle: water 102 % of control | dose: 10.0 mg/kg/injection, schedule: Q01DX009 (ip), vehicle: water 100 % of control | dose: 12.5 mg/kg/injection, schedule: Q04DX003 (ip), vehicle: saline 115 % of control | dose: 16.0 mg/kg/injection, schedule: Q01DX005 (oral), vehicle: water 103 % of control | dose: 16.0 mg/kg/injection, schedule: Q04DX003 (iv), vehicle: saline 104 % of control | dose: 20.0 mg/kg/injection, schedule: Q01DX009 (ip), vehicle: water 110 % of control | dose: 0.3 micrograms/kg/injection, schedule: Q03HX008 (ip), vehicle: saline 123 % of control | dose: 0.6 micrograms/kg/injection, schedule: Q03HX040 (ip), vehicle: saline 109 % of control

From PubChem BioAssay AID330 (DTP/NCI, 2004)
